Test system: MV-4-11 cells
Assay: Gene expression microarray analysis (Affymetrix PrimeView) and GSEA
Format: cell-based, human
Design: RFU PODN (11730768_x_at) / Fold change /veh PODN (11730768_x_at) / RFU LINC00158 (11744669_a_at) / Fold change /veh LINC00158 (11744669_a_at) / RFU DUSP10 (11751237_a_at) / Fold change /veh DUSP10 (11751237_a_at) / RFU ID3 (11757404_x_at) / Fold change /veh ID3 (11757404_x_at) / RFU PLEKHG5 (11737974_s_at) / Fold change /veh PLEKHG5 (11737974_s_at) / RFU LRRC4B (11730491_at) / Fold change /veh LRRC4B (11730491_at) / RFU GIMAP4 (11747438_a_at) / Fold change /veh GIMAP4 (11747438_a_at) / RFU KRT8 (11758183_x_at) / Fold change /veh KRT8 (11758183_x_at) / RFU CNN1 (11734310_a_at) / Fold change /veh CNN1 (11734310_a_at) / RFU VPS37D (11726825_at) / Fold change /veh VPS37D (11726825_at) / RFU C10orf10 (11716522_x_at) / Fold change /veh C10orf10 (11716522_x_at) / RFU KIR2DL2 /// KIR2DL4 /// KIR2DL5A /// KIR2DL5B /// KIR2DS1 /// KIR2DS2 /// KIR2DS3 /// KIR2DS4 /// KIR3DL3 /// KIR3DL3 /// KIR3DS1 (11738374_at) / Fold change /veh KIR2DL2 /// KIR2DL4 /// KIR2DL5A /// KIR2DL5B /// KIR2DS1 /// KIR2DS2 /// KIR2DS3 /// KIR2DS4 /// KIR3DL3 /// KIR3DL3 /// KIR3DS1 (11738374_at) / RFU C1QL1 (11718748_at) / Fold change /veh C1QL1 (11718748_at) / RFU TMPRSS4 (11747572_a_at) / Fold change /veh TMPRSS4 (11747572_a_at) / RFU HAMP (11756126_x_at) / Fold change /veh HAMP (11756126_x_at) / RFU RNFT2 (11725882_a_at) / Fold change /veh RNFT2 (11725882_a_at) / RFU NR4A2 (11747474_a_at) / Fold change /veh NR4A2 (11747474_a_at) / RFU ABCC12 (11746883_a_at) / Fold change /veh ABCC12 (11746883_a_at) / RFU TMEM136 (11760407_x_at) / Fold change /veh TMEM136 (11760407_x_at) / RFU CLDN22 /// WWC2 (11732394_at) / Fold change /veh CLDN22 /// WWC2 (11732394_at) / RFU HLA-DPB1 (11760878_x_at) / Fold change /veh HLA-DPB1 (11760878_x_at) / RFU SPINT1 (11716480_a_at) / Fold change /veh SPINT1 (11716480_a_at) / RFU GAP43 (11754022_s_at) / Fold change /veh GAP43 (11754022_s_at) / RFU A4GNT (11735810_at) / Fold change /veh A4GNT (11735810_at) / RFU PRB3 (11715151_x_at) / Fold change /veh PRB3 (11715151_x_at) / RFU TUBB4B (11761932_at) / Fold change /veh TUBB4B (11761932_at) / RFU CAPN14 (11732068_a_at) / Fold change /veh CAPN14 (11732068_a_at) / RFU TMCC2 (11721928_a_at) / Fold change /veh TMCC2 (11721928_a_at) / RFU IRGQ (11745062_a_at) / Fold change /veh IRGQ (11745062_a_at) / RFU FAM174B (11720279_a_at) / Fold change /veh FAM174B (11720279_a_at) / RFU TMPRSS4 (11748680_a_at) / Fold change /veh TMPRSS4 (11748680_a_at) / RFU FAM212B (11763350_a_at) / Fold change /veh FAM212B (11763350_a_at) / RFU PLEKHG5 (11743358_a_at) / Fold change /veh PLEKHG5 (11743358_a_at) / RFU ZSCAN30 (11745921_a_at) / Fold change /veh ZSCAN30 (11745921_a_at) / RFU CMKLR1 (11741424_a_at) / Fold change /veh CMKLR1 (11741424_a_at) / RFU LOC101060620 /// MAPK8IP1 (11723275_at) / Fold change /veh LOC101060620 /// MAPK8IP1 (11723275_at) / RFU SPTSSB (11747773_x_at) / Fold change /veh SPTSSB (11747773_x_at) / RFU PRSS12 (11739890_at) / Fold change /veh PRSS12 (11739890_at) / RFU BIN1 (11741810_x_at) / Fold change /veh BIN1 (11741810_x_at) / RFU WNT11 (11732464_a_at) / Fold change /veh WNT11 (11732464_a_at) / RFU C10orf10 (11716521_a_at) / Fold change /veh C10orf10 (11716521_a_at) / RFU C5orf56 (11738089_at) / Fold change /veh C5orf56 (11738089_at) / RFU CYB561 (11721691_x_at) / Fold change /veh CYB561 (11721691_x_at) / RFU ANKRD19P (11752326_a_at) / Fold change /veh ANKRD19P (11752326_a_at) / RFU OR2T12 /// OR2T33 /// OR2T8 (11738714_s_at) / Fold change /veh OR2T12 /// OR2T33 /// OR2T8 (11738714_s_at) / RFU VCAN (11748164_a_at) / Fold change /veh VCAN (11748164_a_at) / RFU JSRP1 (11732532_at) / Fold change /veh JSRP1 (11732532_at) / RFU KRTAP10-11 (11738290_x_at) / Fold change /veh KRTAP10-11 (11738290_x_at) / RFU MYO3A (11730013_a_at) / Fold change /veh MYO3A (11730013_a_at) / RFU EBF3 (11725865_a_at) / Fold change /veh EBF3 (11725865_a_at) / RFU CAMK2N1 (11719241_x_at) / Fold change /veh CAMK2N1 (11719241_x_at) / RFU C5orf56 (11738088_a_at) / Fold change /veh C5orf56 (11738088_a_at) / RFU OLFML3 (11715873_a_at) / Fold change /veh OLFML3 (11715873_a_at) / RFU LOC100653217 /// NTM (11731650_a_at) / Fold change /veh LOC100653217 /// NTM (11731650_a_at) / RFU MAPK11 (11762145_a_at) / Fold change /veh MAPK11 (11762145_a_at) / RFU FIZ1 (11724087_x_at) / Fold change /veh FIZ1 (11724087_x_at) / RFU OASL (11726364_x_at) / Fold change /veh OASL (11726364_x_at) / RFU SOX15 (11748057_x_at) / Fold change /veh SOX15 (11748057_x_at) / RFU CD79A (11719716_a_at) / Fold change /veh CD79A (11719716_a_at) / RFU HIST1H1D (11736915_at) / Fold change /veh HIST1H1D (11736915_at) / RFU CASKIN2 (11723855_a_at) / Fold change /veh CASKIN2 (11723855_a_at) / RFU LOC730098 (11760151_x_at) / Fold change /veh LOC730098 (11760151_x_at) / RFU OR4N2 (11742367_at) / Fold change /veh OR4N2 (11742367_at) / RFU PRRT2 (11749266_a_at) / Fold change /veh PRRT2 (11749266_a_at) / RFU SNX32 (11753110_a_at) / Fold change /veh SNX32 (11753110_a_at) / RFU CDHR5 (11726645_a_at) / Fold change /veh CDHR5 (11726645_a_at) / RFU RCAN1 (11760418_a_at) / Fold change /veh RCAN1 (11760418_a_at) / RFU FAM167A (11723789_a_at) / Fold change /veh FAM167A (11723789_a_at) / RFU FAM26E (11764081_at) / Fold change /veh FAM26E (11764081_at) / RFU ISYNA1 (11749810_s_at) / Fold change /veh ISYNA1 (11749810_s_at) / RFU ACY1 (11761880_at) / Fold change /veh ACY1 (11761880_at) / RFU 11764098_at / Fold change /veh 11764098_at / RFU SAMD14 (11745864_x_at) / Fold change /veh SAMD14 (11745864_x_at) / RFU NPB (11741838_a_at) / Fold change /veh NPB (11741838_a_at) / RFU TMPRSS6 (11731388_a_at) / Fold change /veh TMPRSS6 (11731388_a_at) / RFU KRTAP10-2 (11738614_at) / Fold change /veh KRTAP10-2 (11738614_at) / RFU ARHGAP8 /// PRR5-ARHGAP8 (11727945_x_at) / Fold change /veh ARHGAP8 /// PRR5-ARHGAP8 (11727945_x_at) / RFU KRTAP5-7 /// NADSYN1 (11734609_at) / Fold change /veh KRTAP5-7 /// NADSYN1 (11734609_at) / RFU RASL12 (11751679_a_at) / Fold change /veh RASL12 (11751679_a_at) / RFU CDKN2B (11736163_a_at) / Fold change /veh CDKN2B (11736163_a_at) / RFU PRF1 (11729649_at) / Fold change /veh PRF1 (11729649_at) / RFU, ZNF638 /// ZNF638-IT1 / Fold change vs veh, ZNF638 /// ZNF638-IT1 / RFU, PANK3 / Fold change vs veh, PANK3 / RFU, SH3YL1 / Fold change vs veh, SH3YL1 / RFU, ZEB2 / Fold change vs veh, ZEB2 / RFU, NRIP1 / Fold change vs veh, NRIP1 / RFU, PTTG1IP / Fold change vs veh, PTTG1IP / RFU, CAPN2 / Fold change vs veh, CAPN2 / RFU, MED14 / Fold change vs veh, MED14 / RFU, SNORA58 / Fold change vs veh, SNORA58 / RFU, C1orf63 / Fold change vs veh, C1orf63 / RFU, LRRFIP1 / Fold change vs veh, LRRFIP1 / RFU, NDUFAF7 / Fold change vs veh, NDUFAF7 / RFU, SLC12A2 / Fold change vs veh, SLC12A2 / RFU, IBTK / Fold change vs veh, IBTK / RFU, ESF1 / Fold change vs veh, ESF1 / Fold change vs veh, TMEM50B / RFU, TAOK1 / Fold change vs veh, TAOK1 / RFU, ACBD3 / Fold change vs veh, ACBD3 / RFU, TMA16 / Fold change vs veh, TMA16 / RFU, RWDD3 / Fold change vs veh, RWDD3 / RFU, BCAT1 / Fold change vs veh, BCAT1 / RFU, EDEM3 / Fold change vs veh, EDEM3 / RFU, TMEM33 / Fold change vs veh, TMEM33 / RFU, WDR75 / Fold change vs veh, WDR75 / RFU, AHCTF1 / Fold change vs veh, AHCTF1 / RFU, TFRC / Fold change vs veh, TFRC / RFU, ZDHHC17 / Fold change vs veh, ZDHHC17 / RFU, NOM1 / Fold change vs veh, NOM1 / RFU, ARL8B / Fold change vs veh, ARL8B / RFU, ZBTB11 / Fold change vs veh, ZBTB11 / RFU, TAMM41 / Fold change vs veh, TAMM41 / RFU, KIAA1704 /// LOC100996395 / Fold change vs veh, KIAA1704 /// LOC100996395 / RFU, ING1 / Fold change vs veh, ING1 / RFU, TRMT61B / Fold change vs veh, TRMT61B / RFU, FUBP3 / Fold change vs veh, FUBP3 / RFU, TP53 / Fold change vs veh, TP53 / RFU, TNKS2 / Fold change vs veh, TNKS2 / RFU, ZFP14 / Fold change vs veh, ZFP14 / RFU, ACTR2 / Fold change vs veh, ACTR2 / RFU, PPP3R1 / Fold change vs veh, PPP3R1 / RFU, PIK3R1 / Fold change vs veh, PIK3R1 / RFU, HNRNPA1 / Fold change vs veh, HNRNPA1 / RFU, RNF170 / Fold change vs veh, RNF170 / RFU, ZNF28 / Fold change vs veh, ZNF28 / RFU, RNGTT / Fold change vs veh, RNGTT / RFU, OGT / Fold change vs veh, OGT / RFU, BRD1 / Fold change vs veh, BRD1 / RFU, MARS / Fold change vs veh, MARS / RFU, ZNF655 / Fold change vs veh, ZNF655 / RFU, FAHD1 / Fold change vs veh, FAHD1 / RFU, BDP1 / Fold change vs veh, BDP1 / RFU, LRRCC1 / Fold change vs veh, LRRCC1 / RFU, ARID1A / Fold change vs veh, ARID1A / RFU, ZNF146 / Fold change vs veh, ZNF146 / RFU, ZNF330 / Fold change vs veh, ZNF330 / RFU, GPN3 / Fold change vs veh, GPN3 / RFU, C9orf123 / Fold change vs veh, C9orf123 / RFU, N4BP2L2 / Fold change vs veh, N4BP2L2 / RFU, ARFIP1 / Fold change vs veh, ARFIP1 / RFU, FAM179B / Fold change vs veh, FAM179B / RFU, BCL10 / Fold change vs veh, BCL10 / RFU, UHRF1BP1L / Fold change vs veh, UHRF1BP1L / RFU, BET1 / Fold change vs veh, BET1 / RFU, CNOT2 / Fold change vs veh, CNOT2 / RFU, ZNF268 / Fold change vs veh, ZNF268 / Fold change vs veh, ZNF507 / RFU, DGCR2 / Fold change vs veh, DGCR2 / RFU, WDSUB1 / Fold change vs veh, WDSUB1 / Fold change vs veh, HSP90B1 /// MIR3652 / RFU, ADSS / Fold change vs veh, ADSS / RFU, GK / Fold change vs veh, GK / RFU, ZNF148 / Fold change vs veh, ZNF148 / RFU, TAF9 / Fold change vs veh, TAF9 / RFU, SLC1A5 / Fold change vs veh, SLC1A5 / RFU, SLMO2 / Fold change vs veh, SLMO2 / RFU, ABCC4 / Fold change vs veh, ABCC4 / RFU, LOC101060439 /// RAP1B / Fold change vs veh, LOC101060439 /// RAP1B / RFU, RFX7 / Fold change vs veh, RFX7 / RFU, GTPBP10 / Fold change vs veh, GTPBP10 / RFU, CNEP1R1 / Fold change vs veh, CNEP1R1 / RFU, BIVM-ERCC5 /// ERCC5 / Fold change vs veh, BIVM-ERCC5 /// ERCC5 / RFU, ILF3 / Fold change vs veh, ILF3 / RFU 11762660_at / Fold change /veh 11762660_at / RFU VCAN (11757783_s_at) / Fold change /veh VCAN (11757783_s_at) / RFU DDX43 (11728927_at) / Fold change /veh DDX43 (11728927_at) / RFU KRT8 (11758188_x_at) / Fold change /veh KRT8 (11758188_x_at) / RFU NKD1 (11759106_at) / Fold change /veh NKD1 (11759106_at) / RFU SRD5A1 (11742802_a_at) / Fold change /veh SRD5A1 (11742802_a_at) / RFU TPSAB1 /// TPSB2 (11721975_s_at) / Fold change /veh TPSAB1 /// TPSB2 (11721975_s_at) / RFU GSTM3 (11746129_a_at) / Fold change /veh GSTM3 (11746129_a_at) / RFU IL23R (11737362_x_at) / Fold change /veh IL23R (11737362_x_at) / RFU TMEM51 (11727254_a_at) / Fold change /veh TMEM51 (11727254_a_at) / RFU PIWIL2 (11732686_x_at) / Fold change /veh PIWIL2 (11732686_x_at) / RFU ORM1 (11744905_x_at) / Fold change /veh ORM1 (11744905_x_at) / RFU CCDC152 (11743942_at) / Fold change /veh CCDC152 (11743942_at) / RFU ECM1 (11717891_a_at) / Fold change /veh ECM1 (11717891_a_at) / RFU IL23R (11748794_a_at) / Fold change /veh IL23R (11748794_a_at) / RFU TNFAIP8L3 (11732012_x_at) / Fold change /veh TNFAIP8L3 (11732012_x_at) / RFU MBOAT4 (11741988_at) / Fold change /veh MBOAT4 (11741988_at) / RFU 11764193_at / Fold change /veh 11764193_at / RFU TMEM53 (11763286_at) / Fold change /veh TMEM53 (11763286_at) / RFU MAGEB2 (11727129_at) / Fold change /veh MAGEB2 (11727129_at) / RFU TMEM200A (11744735_a_at) / Fold change /veh TMEM200A (11744735_a_at) / RFU CCDC152 (11751479_a_at) / Fold change /veh CCDC152 (11751479_a_at) / RFU FAM211A (11726209_a_at) / Fold change /veh FAM211A (11726209_a_at) / RFU RGS16 (11746705_a_at) / Fold change /veh RGS16 (11746705_a_at) / RFU VCAN (11755009_s_at) / Fold change /veh VCAN (11755009_s_at) / RFU RHOB (11743442_s_at) / Fold change /veh RHOB (11743442_s_at) / RFU RGS16 (11720943_a_at) / Fold change /veh RGS16 (11720943_a_at) / RFU RGS16 (11720944_at) / Fold change /veh RGS16 (11720944_at) / RFU, VPS4B / Fold change vs veh, VPS4B / RFU, CREB1 / Fold change vs veh, CREB1 / RFU, DNAJC13 / Fold change vs veh, DNAJC13 / RFU, GNAQ / Fold change vs veh, GNAQ / RFU, CDK5R1 / Fold change vs veh, CDK5R1 / RFU, ZRANB3 / Fold change vs veh, ZRANB3 / RFU, CUL4A / Fold change vs veh, CUL4A / RFU, CCNY / Fold change vs veh, CCNY / RFU, UFL1 / Fold change vs veh, UFL1 / RFU, COG3 / Fold change vs veh, COG3 / RFU, DIAPH2 / Fold change vs veh, DIAPH2 / RFU, SKA2 / Fold change vs veh, SKA2 / RFU, AFF3 / Fold change vs veh, AFF3 / RFU, LMF1 / Fold change vs veh, LMF1 / RFU, IPO11 / Fold change vs veh, IPO11 / RFU, DFFB / Fold change vs veh, DFFB / RFU, FOXP1 / Fold change vs veh, FOXP1 / RFU, CARD8 / Fold change vs veh, CARD8 / RFU, STRN3 / Fold change vs veh, STRN3 / RFU, ADK / Fold change vs veh, ADK / RFU, RASSF2 / Fold change vs veh, RASSF2 / RFU, WIPF1 / Fold change vs veh, WIPF1 / RFU, LARP1B / Fold change vs veh, LARP1B / RFU, RASA1 / Fold change vs veh, RASA1 / RFU, RB1 / Fold change vs veh, RB1 / RFU, PPFIA1 / Fold change vs veh, PPFIA1 / RFU, MAT2A / Fold change vs veh, MAT2A / RFU, CCT5 / Fold change vs veh, CCT5 / RFU, WDR92 / Fold change vs veh, WDR92 / RFU, CUX1 / Fold change vs veh, CUX1 / RFU, TTC7A / Fold change vs veh, TTC7A / RFU, TMEM135 / Fold change vs veh, TMEM135 / RFU, DEPTOR / Fold change vs veh, DEPTOR / RFU, CPM / Fold change vs veh, CPM / RFU, DNAJB6 / Fold change vs veh, DNAJB6 / RFU, CACNA2D3 / Fold change vs veh, CACNA2D3 / RFU, DTX4 / Fold change vs veh, DTX4 / RFU, TFCP2 / Fold change vs veh, TFCP2 / RFU, GMCL1 /// GMCL1P1 / Fold change vs veh, GMCL1 /// GMCL1P1 / RFU, AEBP2 / Fold change vs veh, AEBP2 / RFU, SNHG1 /// SNORD22 /// SNORD25 /// SNORD26 /// SNORD27 /// SNORD28 /// SNORD29 /// SNORD31 / Fold change vs veh, SNHG1 /// SNORD22 /// SNORD25 /// SNORD26 /// SNORD27 /// SNORD28 /// SNORD29 /// SNORD31 / Fold change (Aza/veh), C12orf56 (ProbeSet 11735607_a_at) / Fold change (ACY-1035/veh), C12orf56 (ProbeSet 11735607_a_at) / Fold change (Aza/veh), FGFR1OP (ProbeSet 11751329_s_at) / Fold change (ACY-1035/veh), FGFR1OP (ProbeSet 11751329_s_at) / Fold change (Aza/veh), VPS36 (ProbeSet 11739960_a_at) / Fold change (ACY-1035/veh), VPS36 (ProbeSet 11739960_a_at) / RFU SYPL1 (11715823_x_at) / Fold change /veh SYPL1 (11715823_x_at) / RFU IGFBP7 (11715501_s_at) / Fold change /veh IGFBP7 (11715501_s_at) / RFU REEP3 (11722064_at) / Fold change /veh REEP3 (11722064_at) / RFU IGLL1 (11728026_x_at) / Fold change /veh IGLL1 (11728026_x_at): dose or concentration left out as unconfirmed
Details: ProbeSet 11739106_a_at; LIST B

Q: Which “Fold change vs veh, TMEM33” value does the source give for `Nc1ncn([C@@H]2O[C@H](CO)[C@@H](O)[C@H]2O)c(=O)n1` [azacitidine] here?
A: 0.88

From PMC5218480 (PLoS ONE, 2017)
